Results from patent US20250248979A1, “NOVEL GPX4 INHIBITORS AND USES THEREOF” (THE TRUSTEES OF COLUMBIA UNIVERSITY IN THE CITY OF NEW YORK, priority 2022, published 2025).
Like-named read-outs stand apart in the source and are kept apart here.

Key:
HT-1080 cells = assay: Cellular dose response assay, HT-1080 with and without Fer-1; assay type: cell-based, human; details: for Selectivity: ferroptosis selectivity; for ferroptosis induction / potency in HT-1080 cells, result in words: RSL3 as control
Description: HT-1080 (human [Homo sapiens] […] fibrosarcoma), A-673 (human [Homo sapiens] […] Ewing's sarcoma), and SK-HEP-1 (human [Homo sapiens] […] hepatic adenocarcinoma), cells were obtained from ATCC. Huh7 (human [Homo sapiens] […] hepatocellular carcinoma), HLF (human [Homo sapiens] […] hepatocellular carcinoma), HepG2 (human [Homo sapiens] […] hepatocellular carcinoma), cells were obtained from the Cancer Cell Bank at Columbia University Irving Medical Center. HT-1080, A-673, Huh-7, and HLF cells were grown in Dulbecco's Modified Eagle Medium (DMEM) supplemented with 10% heat inactivated fetal bovine serum (HI-FBS), 1% non-essential amino acids, and 1% penicillin streptomycin. HepG2 and SK-HEP-1 cells were grown in Eagle's Minimum Essential Medium (EMEM) supplemented with 10% HI-FBS, and 1% penicillin-streptomycin. All cells were cultured at 37° C. and 5% CO2.
HT-1080, HepG2, Huh7, HLF, and SK-HEP-1 cells were seeded into opaque white 384-well plates at 1500 cells per well then incubated at 37° C. with 5% CO2 overnight. The next day, compounds of interest were dissolved in DMSO and 12-point 2-fold dilution series were prepared with and without Fer-1. Cells were treated in triplicate (final DMSO concentration of 0.4% in all wells, including DMSO-only control wells) and incubated for a further 48 hours at 37° C. and 5% CO2. Cell viability was evaluated using CellTiter-Glo (Promega G7573) and luminescence was recorded on a Victor 5 plate reader. Data were analyzed in GraphPad Prism 9 and error bars represent standard deviation values for three technical replicates in a representative experiment.

GPX4 = target: T1, GPX4 (Homo sapiens, UniProt P36969); assay: GPX4 activity assay in cell lysates (NADPH-coupled); assay type: biochemical; set-up: endogenous in cells; host or cells: A-673 cell lysate
T1 sequence (P36969 1-170 isoform P36969-2): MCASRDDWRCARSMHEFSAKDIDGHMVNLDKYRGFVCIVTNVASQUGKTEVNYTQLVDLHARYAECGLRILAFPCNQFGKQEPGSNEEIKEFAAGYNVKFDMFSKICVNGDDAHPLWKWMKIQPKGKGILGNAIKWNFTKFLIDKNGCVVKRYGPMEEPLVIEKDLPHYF
How it was run: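 Native GPX4 in lysates of A-673 cells grown with 20 nM sodium selenite; lysate preincubated with compound 45 min at 37 °C in pH 8.0 buffer with 3 mM GSH, 0.5 mM NADPH and glutathione reductase. Reaction started with phosphatidylcholine hydroperoxide; NADPH consumption followed at 340 nm over 25 min; triplicates.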

[1] = HT1080 + Fer-1, read-out: IC50 (uM) HT1080 + Fer-1
[2] = HT1080, without Fer-1, read-out: IC50 (uM) HT1080
[3] = with Fer-1, Table 10, read-out: IC50 (μM) HT1080 + Fer-1
[4] = without Fer-1, Table 10, read-out: IC50 (μM) HT1080

Row | Compound | IC50 (HT-1080 cells; [1]) | IC50 (HT-1080 cells; [2]) | Selectivity (HT-1080 cells; HT1080 + Fer-1 vs HT1080) | GPX4% inhibition at 2.5 μM (GPX4; 2.5 μM) | IC50 (HT-1080 cells; [3]) | IC50 (HT-1080 cells; [4]) | further results
1 | COc1ccc(-c2ccc3c(C(=O)NC(C)(C)C(C)OC(=O)CCl)nn(C)c3c2)cc1Cl (racemic) [QW-736] | 7.3 µM | 3.7 µM | 2.0 | 95.3 ± 7.6% | – | – | –
2 | Cn1nc(C(=O)NC(C)(C)COC(=O)CCl)c2ccc(-c3cc4ccccc4s3)cc21 [QW-470] | 17.3 µM | 1.7 µM | 10.2 | – | – | – | GPX4% inhibition at 5 μM (GPX4; 5 μM): 75.0 ± 5.6%
3 | CCOCCOc1ccc(-c2ccc3c(C(=O)NC(C)(C)COC(=O)CCl)nn(C)c3c2)cc1 [QW-605] | 17.5 µM | 1.9 µM | 9.2 | 60.9 ± 15.7% | – | – | –
4 | Cn1nc(-n2cc(C(C)(C)COC(=O)CCl)nn2)c2ccc(-c3ccc(OC(F)(F)F)c(Cl)c3)cc21 [QW-677] | 14 µM | 1.65 µM | 8.5 | 33.6 ± 6.3% | – | – | –
5 | Cn1nc(-c2nnc(C(C)(OC(=O)CCl)C(F)(F)F)o2)c2ccc(-c3ccc4c(c3)OCO4)cc21 (stereo not shown) [QW-695] | 14.4 µM | 9.4 µM | 1.5 | −49.5 ± 28.5% | – | – | –
6 | Cn1nc(-n2cc(C(C)(C)COC(=O)CCl)nn2)c2ccc(-c3ccc4c(c3)OCO4)cc21 [QW-696] | 8.8 µM | 2.9 µM | 3.0 | 22.3 ± 37.1% | – | – | –
7 | COc1c(Cl)cc(-c2ccc3c(C(=O)NC(C)(C)COC(=O)CCl)nn(C)c3c2)cc1Cl [QW-711] | 31.7 µM | 1.4 µM | 22.6 | 98.4 ± 17.6% | – | – | ferroptosis induction / potency in HT-1080 cells, result in words (HT-1080 cells): less potent compared to RSL3; GPX4 inhibitory activity, result in words (GPX4): further increase the inhibitory activity
8 | COc1c(Cl)cc(-c2ccc3c(-n4cc(C(C)(C)COC(=O)CCl)nn4)nn(C)c3c2)cc1Cl [QW-712] | 28.4 µM | 1.9 µM | 14.9 | 68.5 ± 9.4% | – | – | ferroptosis induction / potency in HT-1080 cells, result in words (HT-1080 cells): less potent compared to RSL3
9 | Cn1nc(C(=O)NC(C)(C)COC(=O)CCl)c2ccc(-c3ccc(OC(C)(C)C)cc3)cc21 [QW-715] | 24.1 µM | 2.6 µM | 9.3 | 95.3 ± 7.6% | – | – | ferroptosis induction / potency in HT-1080 cells, result in words (HT-1080 cells): more potent compared to RSL3; GPX4 inhibition (GPX4; 2.5 μM): completely inhibited GPX4
10 | CC(C)Oc1ncc(-c2ccc3c(C(=O)NC(C)(C)COC(=O)CCl)nn(C)c3c2)cn1 [QW-716] | 63 µM | 1.6 µM | 39.4 | 86.4 ± 7.3% | – | – | ferroptosis induction / potency in HT-1080 cells, result in words (HT-1080 cells): more potent compared to RSL3; GPX4 inhibitory activity, result in words (GPX4): substantially higher GPX4 inhibitory activities than QW-446
11 | Cn1nc(C(=O)NC(C)(C)C(C)(C)OC(=O)CCl)c2ccc(-c3ccc(N4CCOCC4)c(Cl)c3)cc21 [QW-731] | 2.8 µM | 1.2 µM | 2.3 | 68.5 ± 9.4% | – | – | –
12 | COc1ccc(-c2ccc3c(-n4cc(CCOC(=O)CCl)nn4)nn(C)c3c2)cc1Cl [QW-755] | 23.9 µM | 9.5 µM | 2.5 | 43.2 ± 14.9% | – | – | –
13 | COc1ccc(-c2ccc3c(C(=O)NC(C)(C)C(C)(C)OC(=O)CCl)nn(C)c3c2)cc1Br [QW-766] | 2.5 µM | 1.2 µM | 2.1 | −31.1 ± 29.6% | – | – | –
14 | Cn1nc(C(=O)NC(C)(C)C(C)(C)OC(=O)CCl)c2ccc(-c3ccc(OC(C)(C)C)cc3)cc21 [QW-770] | 2.2 µM | 1 µM | 2.2 | −36.4 ± 19.3% | – | – | –
15 | COc1ccc(-c2ccc3c(C(=O)NCC(C)(C)OC(=O)CCl)nn(C)c3c2)cc1Cl [QW-774] | 8.8 µM | 3.7 µM | 2.4 | −25.3 ± 6.9% | – | – | –
16 | Cn1nc(C(=O)NC(C)(C)C(C)(C)OC(=O)CCl)c2ccc(-c3ccc(C(F)(F)F)c(Cl)c3)cc21 [QW-786] | 5.8 µM | 2.4 µM | 2.6 | 31.7 ± 19.5% | – | – | –
17 | COc1ccc(-c2ccc3c(-n4cc(C(C)(C)CNC(=O)CCl)nn4)nn(C)c3c2)cc1Cl [QW-792] | 5.8 µM | 1.1 µM | 5.3 | −19.6 ± 18.2% | – | – | –

Row | Compound | IC50 (HT-1080 cells; [1]) | IC50 (HT-1080 cells; [2]) | Selectivity (HT-1080 cells; HT1080 + Fer-1 vs HT1080) | GPX4% inhibition at 2.5 μM (GPX4; 2.5 μM) | IC50 (HT-1080 cells; [3]) | IC50 (HT-1080 cells; [4]) | further results
18 | COc1c(F)cc(-c2ccc3c(C(=O)NC(C)(C)C(C)(C)OC(=O)CCl)nn(C)c3c2)cc1Cl [QW-796] | 2.6 µM | 2.4 µM | 1.1 | 4.6 ± 14.4% | – | – | –
19 | COc1c(F)cc(-c2ccc3c(-n4cc(C(C)(C)COC(=O)CCl)nn4)nn(C)c3c2)cc1Cl [QW-801] | 14.3 µM | 8.4 µM | 1.7 | 58.1 ± 9.2% | – | – | –
20 | CCOc1ccc(-c2ccc3c(C(=O)NC(C)(C)COC(=O)CCl)nn(Cc4cc(Cl)cc(Cl)c4)c3c2)cc1Cl [QW-983] | – | – | – | – | 19.2 µM | 2.2 µM | Selectivity (HT-1080 cells; IC50 with Fer-1 / IC50): 8.7
21 | CSc1ccc(-c2ccc3c(C(=O)NC(C)(C)COC(=O)CCl)nn(Cc4cc(Cl)cc(Cl)c4)c3c2)cc1Cl [QW-984] | – | – | – | – | > 40 µM | 0.75 µM | Selectivity (HT-1080 cells; IC50 with Fer-1 / IC50): >53
22 | CCCOc1ccc(-c2ccc3c(C(=O)NC(C)(C)COC(=O)CCl)nn(Cc4cc(Cl)cc(Cl)c4)c3c2)cc1Cl [QW-987] | – | – | – | – | > 40 µM | 0.72 µM | Selectivity (HT-1080 cells; IC50 with Fer-1 / IC50): >55
23 | CC(C)(COC(=O)CCl)NC(=O)c1nn(Cc2cc(Cl)cc(Cl)c2)c2cc(-c3ccc(N4CCOCC4)cc3)ccc12 [QW-988] | – | – | – | – | 19.5 µM | 2.9 µM | Selectivity (HT-1080 cells; IC50 with Fer-1 / IC50): 6.7
24 | CC(C)(COC(=O)CCl)NC(=O)c1nn(Cc2cc(Cl)cc(Cl)c2)c2cc(-c3ccc(OC(F)(F)F)c(Cl)c3)ccc12 [QW-991] | – | – | – | – | 21.1 µM | 0.66 µM | Selectivity (HT-1080 cells; IC50 with Fer-1 / IC50): 32.0
25 | COC(=O)c1ccc(-c2ccc3c(C(=O)NC(C)(C)COC(=O)CCl)nn(Cc4cc(Cl)cc(Cl)c4)c3c2)cc1Cl [QW-992] | – | – | – | – | 23.3 µM | 3.1 µM | Selectivity (HT-1080 cells; IC50 with Fer-1 / IC50): 7.5
26 | CC(C)(COC(=O)CCl)NC(=O)c1nn(Cc2cc(Cl)cc(Cl)c2)c2cc(-c3ccc(C(F)(F)F)c(Cl)c3)ccc12 [QW-995] | – | – | – | – | 47.1 µM | 42.3 µM | Selectivity (HT-1080 cells; IC50 with Fer-1 / IC50): 1.1
27 | CC(C)Oc1c(Cl)cc(-c2ccc3c(C(=O)NC(C)(C)COC(=O)CCl)nn(Cc4cc(Cl)cc(Cl)c4)c3c2)cc1Cl [QW-996] | – | – | – | – | 12.8 µM | 0.72 µM | Selectivity (HT-1080 cells; IC50 with Fer-1 / IC50): 17.8
28 | COc1c(Cl)cc(-c2ccc3c(C(=O)NC(C)(C)COC(=O)CCl)nn(Cc4cc(Cl)cc(Cl)c4)c3c2)cc1Cl [QW-998] | – | – | – | – | > 40 µM | 0.35 µM | Selectivity (HT-1080 cells; IC50 with Fer-1 / IC50): >114.3
29 | CC(=O)OCC(C)(C)NC(=O)c1nn(Cc2cc(Cl)cc(Cl)c2)c2cc(-c3ccc(N4CCOCC4)c(Cl)c3)ccc12 [QW-999] | – | – | – | – | > 40 µM | > 40 µM | ferroptosis induction / potency in HT-1080 cells, result in words (HT-1080 cells): inactive in cellular assay
30 | CC(C)(COC(=O)C(Cl)Cl)NC(=O)c1nn(Cc2cc(Cl)cc(Cl)c2)c2cc(-c3ccc(N4CCOCC4)c(Cl)c3)ccc12 [QW-1000] | – | – | – | – | > 40 µM | > 40 µM | –
31 | COC(=O)/C=C/C(=O)OCC(C)(C)NC(=O)c1nn(Cc2cc(Cl)cc(Cl)c2)c2cc(-c3ccc(N4CCOCC4)c(Cl)c3)ccc12 [QW-1001] | – | – | – | – | > 40 µM | > 40 µM | –
32 | CC=CC(=O)OCC(C)(C)NC(=O)c1nn(Cc2cc(Cl)cc(Cl)c2)c2cc(-c3ccc(N4CCOCC4)c(Cl)c3)ccc12 [QW-1002] | – | – | – | – | > 40 µM | > 40 µM | –
33 | CC(C)(COC(=O)CBr)NC(=O)c1nn(Cc2cc(Cl)cc(Cl)c2)c2cc(-c3ccc(N4CCOCC4)c(Cl)c3)ccc12 [QW-1004] | – | – | – | – | 8.9 µM | 3.8 µM | Selectivity (HT-1080 cells; IC50 with Fer-1 / IC50): 2.3
34 | CC(C)(COC(=O)c1ccc(S(C)(=O)=O)c([N+](=O)[O-])c1)NC(=O)c1nn(Cc2cc(Cl)cc(Cl)c2)c2cc(-c3ccc(N4CCOCC4)c(Cl)c3)ccc12 [QW-1006] | – | – | – | – | > 40 µM | > 40 µM | –
